Laboratory results: patent publication US10226477B2, “Composition for preventing, improving or treating postmenopausal osteoporosis comprising scopolin” (DONG WOO DANG CO., LTD, priority 2016, dated 2019)
Entries after “also recorded” stand apart in the source; their conditions may differ.

How the values were obtained:
[1] = test system: ddY female ovariectomized (OVX)-mouse; assay: Bone mineral density (PIXImus) and femoral micro-CT in ovariectomized menopausal mouse model; assay type: in vivo; settings: oral, 12 weeks, scopolin 20 and 40 mg/kg/day, SrCl2 20 mg/kg/day; for decrease in the bone mineral density caused by the menopause: p<0.05 vs. OVX
Description: (§1) To evaluate in vivo efficacy of scopolin, a 10-week-old ddY female ovariectomized (OVX)-mouse was used a menopausal animal model (ovariectomy was performed on the 8-week-old mouse, and the mouse was additionally raised for 2 weeks). Regarding control groups, a Shame mouse that was subjected to laparotomy, but was not subjected to ovariectomy, (normal control group), and an OVX mouse to which physiological saline was added (negative control group) were used, and in addition, a strontium chloride (SrCl2) mouse in which 20 mg/kg/day of SrCl2, which is a compound having an effect in enhancing bone mineral density, was administered by oral injection to an OVX mouse was used as a positive control group in the test for bone mineral density improvement efficacy. Here, an experimental group was prepared by administering scopolin at a dose of 20 mg/kg/day and 40 mg/kg/day by oral injection. The 10-week-old sham-operated mouse and the ddY OVX-mouse were purchased at Central Lab. Animal Inc., and then, were moved to a clean animal breeding room after spending 1 week of purification period in the laboratory animal quarantine room. These mice were individually weighed to be classified into experimental groups without a statistically significant difference in weight. Scopolin used in the experiment was dissolved in 1% DMSO aqueous solution to be prepared as a test solution. In order to bring these mice in the laboratory animal center, a radiation irradiation company, SOYAGREENTEC Inc., was commissioned for sterilization operations using gamma irradiation.
At the beginning of the animal experiment, a PIXImus bone densitometer was used to measure initial bone mineral density (BMD) of the mice. The mice were anesthetized by injecting 50 μl of a mixed anesthetic of zoletil and rompun (a mixture of zoletil and rompun at a ratio of 1:2 was diluted with physiological saline at a ratio of 2:3), and then, were fixed to a bone mineral density measuring frame to measure bone mineral density. After 6 weeks and 12 weeks of the injection of scopolin to the mice, the bone mineral density of the mice was measured by using the PIXImus bone densitometer. After the completion of the experiment during 12 weeks, blood sampling and removal of femoral bone were performed, and micro-CT was taken thereon. In the micro-CT images, bone volume ratios (BV ratios, %), trabecular thickness (Tb.Th), trabecular number (Tb.N), and trabecular spacing (Tb.Sp) were numeralized and analyzed.

[2] = test system: ddY female ovariectomized (OVX)-mouse; assay: Serum OPG and RANKL levels by ELISA in ovariectomized menopausal mouse model; assay type: in vivo; settings: oral, 12 weeks, scopolin 20 and 40 mg/kg/day, SrCl2 20 mg/kg/day; for decrease in the serum level of OPG (bone formation marker) / increase in the serum level of RANKL (bone resorption marker): p<0.05 vs. OVX
Description: as §1
Next, the changes of blood metabolism markers in the blood were examined. After 12 weeks of the experiment performed on the postmenopausal mouse model, the blood sampling was performed thereon, and serum samples were collected therefrom. The serum protein levels of osteoprotegerin (OPG), which is a bone formation marker, and receptor activator of nuclear factor-kappa B ligand (RANKL), which is a bone resorption marker, were analyzed by ELISA. […] However, in the experimental groups to which scopolin was administered at a dose of 20 mg/kg/day and 40 mg/kg/day for 12 weeks, it was confirmed that the decrease in the level of OPG, which is the bone formation marker in the blood, the increase in the level of RANKL, which is the bone resorption marker, and the decrease in the OPG/RANKL ratios were inhibited (see FIGS. 9A, 9B, and 9C). Such results were similar with those obtained by the SrCl2 mouse which is the positive control group. In addition, in the statistical analysis, the significance of the efficacy of scopolin was also confirmed (*: p<0.05 vs. OVX negative control group).

[3] = test system: MC3T3-E1 cells; assay: Osteoblast differentiation: alkaline phosphatase (ALP) activity; assay type: cell-based
Description: The efficacy of scopolin on the differentiation of osteoblasts was evaluated by using the MC3T3-E1 cells. Ascorbic acid (50 μg/ml) and β-glycerophosphate (10 mM), which are osteoblast inducers, were added to the MC3T3-E1 cells, to thereby induce the differentiation for 3 days. Then, the resulting cells were treated with scopolin. Scopolin was dissolved in 1% dimethyl sulfoxide (DMSO) aqueous solution, and then, was applied to the MC3T3-E1 cells at concentrations of 1 μg/ml (Sco1), 5 μg/ml (Sco5), and 10 μg/ml (Sco10). The resulting cells were cultured for additional 48 hours. As a control group, cells were cultured in the same amount of 1% DMSO aqueous solution in which scopolin was not treated. To determine the efficacy of scopolin on the differentiation of osteoblasts, the activity of alkaline phosphatase (ALP) was measured. In detail, the cells that were washed using physiological saline and dissolved using a lytic agent was treated with p-nitrophenyl phosphate, which is a substrate of ALP, and then, cultured at a temperature of 37° C. for 1 hour. Subsequently, 0.5N NaOH, which is a reaction terminating solution, was added the cultured cells, and then, absorbance thereof was measured at a wavelength of 405 nm.

[4] = test system: MC3T3-E1 cells; assay: Cytotoxicity of scopolin by cell proliferation analysis (EZ-Cytox, water-soluble tetrazolium salt); assay type: cell-based; settings: 1 μg/ml, 5 μg/ml and 10 μg/ml, cultured 2 days, vs. physiological saline control
Description: Cytotoxicity of scopolin was evaluated by cell proliferation analysis using an EZ-Cytox Enhanced Cell Viability Assay Kit using a water-soluble tetrazolium salt. In detail, MC3T3-E1 cells (3×10^3 cells/well), which are osteoblasts, were cultured in an alpha-minimum essential medium (α-MEM) supplemented with 10% bovine fetus serum, 1 mM sodium pyruvate, 100 unit/L penicillin, and 100 mg/L streptomycin at a temperature of 37° C. under conditions provided with 5% CO2, and then, the cells were treated with scopolin at three different concentrations (1 μg/ml, 5 μg/ml, and 10 μg/ml) and cultured for 2 days. Next, the tetrazolium salt was applied to each of the cultured cells and a sample, followed by being cultured at a temperature of 37° C. for 2 hours, and then, absorbance thereof was measured at a wavelength of 450 nm.

[5] = test system: MC3T3-E1 cells; assay: Mineralization of osteoblasts by Alizarin Red S staining; assay type: cell-based; settings: 5 μg/ml
Description: The mineralization of osteoblasts was analyzed by an Alizarlin red S staining method after experimental groups and a control group were each treated with 5 μg/ml of scopolin and cultured. […] That is, it was confirmed that scopolin was effective in stimulating the differentiation of osteoblasts.

[6] = test system: MC3T3-E1 cells; assay: Osteoblast differentiation: ALP staining; assay type: cell-based; settings: 5 μg/ml

## [Cl-].[Cl-].[Sr+2] [SrCl2, strontium chloride, reference compound]
[1]
  increase in trabecular spacing (Tb.Sp): similar
  low density of the bone structure (micro-CT images): similar
  reduction in BV ratios (bone volume ratio): similar
  reduction in trabecular number (Tb.N): similar
  reduction in trabecular thickness (Tb.Th): similar
  decrease in the bone mineral density caused by the menopause: similar
[2]
  decrease in the OPG/RANKL ratios: similar
  decrease in the serum level of OPG (bone formation marker): similar
  increase in the serum level of RANKL (bone resorption marker): similar

## COc1cc2ccc(=O)oc2cc1O[C@@H]1O[C@H](CO)[C@@H](O)[C@H](O)[C@H]1O [scopolin]
[3]; 5 μg/ml or 10 μg/ml, 48 hours after 3 days induction, p<0.05 vs. negative control
  differentiation of osteoblasts (ALP activity): statistically significantly increased
[3]; MC3T3-E1 cells, 1-10 μg/ml
  stimulating osteoblast differentiation (overall conclusion): significant effect; also recorded: effective
[4]
  effect on the proliferation of the MC3T3-E1 cells (cytotoxicity): not toxic; also recorded: no adverse effect
[1]
  increase in trabecular spacing (Tb.Sp): inhibited
  low density of the bone structure (micro-CT images): significantly inhibits; also recorded: inhibited
  reduction in BV ratios (bone volume ratio): inhibited
  reduction in trabecular number (Tb.N): inhibited
  reduction in trabecular thickness (Tb.Th): inhibited
  decrease in the bone mineral density caused by the menopause: significantly inhibits; also recorded: inhibited
[5]
  mineralization (Alizarin Red S staining): increased
[2]
  decrease in the OPG/RANKL ratios: inhibited
  decrease in the serum level of OPG (bone formation marker): significantly inhibits; also recorded: inhibited
  increase in the serum level of RANKL (bone resorption marker): significantly inhibits; also recorded: inhibited
[6]
  ALP staining: increased
